Assay results as given in patent US20110245095A1, “FAST ASSIGNMENT OF ADEQUATE CHEMOTHERAPY WITH LATINUM BASED DRUGS FOR CANCER PATIENTS BASED ON THE IDENTIFICATION OF CONSTITUTIONAL BRCAL MUTATIONS” (priority 2008, published 2011).

Key:
Format in all cases: in vivo, human
[1] = test system: disseminated breast and ovarian cancer, BRCA1 mutation carriers; test: Cisplatin chemotherapy, disseminated breast and ovarian cancer analysed together (Example 2)
Text: The patients selected for this study were retrospectively screened from the database of the oncology department at the Pomeranian Academy of Medicine, Szczecin (Poland). […] All cases were documented for the presence of a BRCA1 constitutional mutation among the dominating founder mutations in Poland (C610, 4153delA and 5382insC) determined by the same techniques described in Example 1. The tumor size had to be measurable per RECIST: X-Ray or physical examination ≧20 mm, and/or spiral CT scan≧10 mm, and/or conventional CT scan≧20 mm. Only individuals were chosen with a life expectancy a priori of at least 3 months, to exclude a technical blur due to extreme disease progression in terminal cancer cases. The maximal ECOG performance status admitted was less than or equal to 2. The definition of minimum adequacy of organ function required prior to study entry were as follows: Absolute neutrophil count (ANC)>1,500/mcl, Platelets>100,000/mcl, Haemoglobin >8 g/dl, Total Bilirubin <1.5×ULN, AST (SGOT)/ALT (SGPT)<2.5×ULN and Creatinine within the normal institutional limits. All patients signed their willingness and ability to comply with scheduled visits, treatment plans, laboratory tests, and other study procedures. A total of 15 patients matched the selection criteria with ages at diagnosis ranging from 32 to 70 years and mean age at diagnosis of 48 years.
Ovarian cancer patients were selected following the same selection criteria. Four individuals matched the criteria with ages at diagnosis ranging from 42 to 45 years and mean age at diagnosis of 43.5 years.
The response assessment was based on a complete tumor measurement form (the form is carried forward continuously from cycle to cycle). Possible responses were complete response, partial response, stable disease and progressive disease, according to international oncology standards.

[2] = test system: cancer of the pancreas, BRCA1 mutation carriers; test: Cisplatin chemotherapy of BRCA1 mutation carriers with pancreatic cancer (Example 3, retrospective); conditions: 1 patient
Text: (§1) The database of the oncology department at the Pomeranian Academy of Medicine, Szczecin (Poland), was retrospectively screened for patients affected by cancer types different than the breast or ovary (histologically or cytologically proven) since those cancer types had already been analyzed in Examples 1 and 2. Those patients had to be carriers of at least one constitutional mutation of the gene BRCA1, among the dominating founder mutations in Poland (CMG, 4153delA and 5382insC). The presence of a mutation was determined by the same techniques described in Example 1.
(§2) The group that qualified matching all criteria consisted of five patients affected by cancer of the colon (1 subject), the pancreas (1 subject), the gallbladder (1 subject) and the lung (2 subjects). In 60% of the cases (both lung cancer patients and the colon cancer patient) a complete remission was reported after the application of the chemotherapy. […] In none of the cases, there was a lack of response towards cisplatin.

[3] = test system: cancer of the gallbladder, BRCA1 mutation carriers; test: Cisplatin chemotherapy of BRCA1 mutation carriers with gallbladder cancer (Example 3, retrospective); conditions: 1 patient
Text: as §1, §2

[4] = test system: cancer of colon, lung, pancreas, gallbladder, BRCA1 mutation carriers; test: Cisplatin chemotherapy of BRCA1 mutation carriers with cancer at sites other than breast and ovaries, total (Example 3); conditions: 5 patients
Text: as §1, §2

[5] = test system: cancer of the colon, BRCA1 mutation carriers; test: Cisplatin chemotherapy of BRCA1 mutation carriers with colon cancer (Example 3, retrospective); conditions: 1 patient
Text: as §1, §2

[6] = test system: disseminated ovarian cancer, BRCA1 mutation carriers; test: Cisplatin chemotherapy of BRCA1 mutation carriers with disseminated ovarian cancer (Example 2, retrospective); conditions: 4 patients
Text: The patients selected for this study were retrospectively screened from the database of the oncology department at the Pomeranian Academy of Medicine, Szczecin (Poland). […] All cases were documented for the presence of a BRCA1 constitutional mutation among the dominating founder mutations in Poland (C610, 4153delA and 5382insC) determined by the same techniques described in Example 1. The tumor size had to be measurable per RECIST: X-Ray or physical examination ≧20 mm, and/or spiral CT scan≧10 mm, and/or conventional CT scan≧20 mm. Only individuals were chosen with a life expectancy a priori of at least 3 months, to exclude a technical blur due to extreme disease progression in terminal cancer cases. The maximal ECOG performance status admitted was less than or equal to 2. […]

[7] = test system: invasive breast cancer, pathogenic BRCA1 mutation carriers; test: Neoadjuvant cisplatin therapy in breast cancer patients carrying a constitutional BRCA1 mutation (Example 1)
Experimental: Eight patients were treated in Szczecin (Poland) and two were treated in Bielsko-Biala (Poland). In these centers, genetic testing is offered to all women with incident breast cancer.
For the purpose of this study, genetic testing was expedited; in most cases the test result was available within five days of diagnosis. Written informed consent was obtained from each patient. The protocol was approved by the Research Ethics Review Board of the Pomeranian Medical Academy.
Patients with a previous diagnosis of breast cancer, or other cancer, were excluded (three patients). Patients who received prior chemotherapy were excluded (three patients). Patients with metastatic disease (stage 1V) at presentation were excluded (one patient). One patient presented with primary breast cancer after a previous prophylactic bilateral mastectomy and was excluded.
Patients were evaluated for renal function, liver function, and hematology prior to therapy.
Prior to platinum chemotherapy, the clinical and histological features of the breast cancers were assessed. Tumor size was evaluated by clinical examination and by ultrasound, in some cases supplemented by mammogram. Histology was evaluated in nine cases by core biopsy and in one case by fine needle aspiration. For the nine cases who underwent core biopsy, grade, ER, PR, and ERBB2 status were evaluated by immuno-histochemistry. […] Grade was evaluated in the core biopsy specimen using the Bloom-Richardson classification system,
Each cycle was 21 days. Granulocyte colony-stimulating factor (G-CSF) was not given to any patient. Dexamethasone (8 mg) was administered once daily for three days after chemotherapy, Ondansetron (Zophran™; GlaxoWellcome) was used for anti-nausea prophylaxis. Toxicity (nausea, vomiting, neutropenia) was assessed using the National Cancer Institute Common Toxicity Criteria after each cycle.
Surgery was followed by post-operative chemotherapy (four cycles of Adriamycin and Cyclophosphamide). Two patients received radiotherapy.
Clinical response was considered complete if there was no evidence of the primary breast tumor according to the World Health Organization (WHO) criteria (total disappearance of the tumor in breast and lymph nodes). Clinical response was considered ‘partial’ if there was a reduction of ≧50% in the product of the two largest perpendicular diameters of the tumor. […] The primary endpoint of this study was pathologic complete response. Pathologic response was considered complete if there was no evidence of invasive breast tumor and the lymph nodes were negative. Pathology specimens were reviewed by two pathologists. If there was evidence of breast carcinoma in situ, but no evidence of invasive disease, this was still considered to be a pathologic complete response.

[8] = test system: cancer of the lung, BRCA1 mutation carriers; test: Cisplatin chemotherapy of BRCA1 mutation carriers with lung cancer (Example 3, retrospective); conditions: 2 patients
Text: as §1, §2

[9] = N = 10, after mastectomy and lymph node dissection
[10] = neoadjuvant cisplatin 75 mg/m^2 every three weeks, N = 10

N.N.[Cl][Pt][Cl] [cisplatin, cis-diamminedichloridoplatinum(II)]
No response, % of patients ([1]; 19 patients): 21% | No response, number of patients ([1]; 19 patients): 4 | Response: CR, % of patients ([1]; 19 patients): 53% | Response: CR, number of patients ([1]; 19 patients): 10 | Response: PR, % of patients ([1]; 19 patients): 16% | Response: PR, number of patients ([1]; 19 patients): 3 | Response: SD, % of patients ([1]; 19 patients): 10% | Response: SD, number of patients ([1]; 19 patients): 2 | patients responsive to the therapy ([1]; 19 patients, CR + PR + SD): 79% | adverse effects: anemia, cases ([1]; Example 2 patients): 1 case | adverse effects: nausea, cases ([1]; Example 2 patients): 2 cases | adverse effects: neutropenia, cases ([1]; Example 2 patients): 6 cases | No response, number of patients [2]: 0 | Response: SD, number of patients [2]: 1 | No response, number of patients [3]: 0 | Response: PR, number of patients [3]: 1 | Response: CR, % of patients [4]: 60% | Response: CR, number of patients [4]: 3 | Response: PR, % of patients [4]: 20% | Response: PR, number of patients [4]: 1 | Response: SD, % of patients [4]: 20% | Response: SD, number of patients [4]: 1 | patients with at least a partial remission [4]: 80% | No response, number of patients [5]: 0 | Response: CR, number of patients [5]: 1 | No response, number of patients [6]: 0 | Response: PR (partial response), number of patients [6]: 0 | Clinical Response: No Change, % ([7]; N = 10): 0% | Clinical Response: No Change, No. ([7]; N = 10): 0 | Clinical Response: Partial Response, % ([7]; N = 10): 10% | Clinical Response: Partial Response, No. ([7]; N = 10): 1 | Clinical Response: Progressive Disease, % ([7]; N = 10): 0% | Clinical Response: Progressive Disease, No. ([7]; N = 10): 0 | Number of Lymph Nodes Positive: 0, % ([7]; N = 10): 90% | Number of Lymph Nodes Positive: 0, No. ([7]; N = 10): 9 | Number of Lymph Nodes Positive: 1-3, % ([7]; N = 10): 10% | Number of Lymph Nodes Positive: 1-3, No. ([7]; N = 10): 1 | Number of Lymph Nodes Positive: 4-9, % ([7]; N = 10): 0% | Number of Lymph Nodes Positive: 4-9, No. ([7]; N = 10): 0 | Number of Lymph Nodes Positive: >9, % ([7]; N = 10): 0% | Number of Lymph Nodes Positive: >9, No. ([7]; N = 10): 0 | Pathologic Response: No Response, % ([7]; N = 10): 0% | Pathologic Response: No Response, No. ([7]; N = 10): 0 | Pathologic Response: Partial Reseponse, % ([7]; N = 10): 10% | Pathologic Response: Partial Reseponse, No. ([7]; N = 10): 1 | Residual Disease in Breast: 1-3 cm, % ([7]; N = 10): 0% | Residual Disease in Breast: 1-3 cm, No. ([7]; N = 10): 0 | Residual Disease in Breast: 4-9 cm, % ([7]; N = 10): 0% | Residual Disease in Breast: 4-9 cm, No. ([7]; N = 10): 0 | Residual Disease in Breast: <1 cm, % ([7]; N = 10): 0% | Residual Disease in Breast: <1 cm, No. ([7]; N = 10): 0 | Residual Disease in Breast: >9 cm, % ([7]; N = 10): 0% | Residual Disease in Breast: >9 cm, No. ([7]; N = 10): 0 | Residual Disease in Breast: none, % ([7]; N = 10): 100% | Residual Disease in Breast: none, No. ([7]; N = 10): 10 | grade 3 or 4 anemia ([7]; N = 10): No grade 3 or 4 anemia was observed | patients with febrile neutropenia ([7]; N = 10): No patient | Pathologic Response: Complete Pathologic Response, % [7, 9]: 90% | Pathologic Response: Complete Pathologic Response, No. [7, 9]: 9 | patients who stopped due to side effects (nausea and vomiting) ([7]; N = 10, stopped after two cycles): One patient | complete pathologic response, patients who completed treatment ([7]; four cycles of cisplatin, seven patients): all seven | Clinical Response: Complete Response, % [7, 10]: 90% | Clinical Response: Complete Response, No. [7, 10]: 9 | pathologic complete response, patients who received two cycles ([7]; two cycles, three patients): two | No response, number of patients [8]: 0 | Response: CR, number of patients [8]: 2
